Here are results for three compounds from paper PMC5601180, “Uptake and metabolism of sulphated steroids by the blood–brain barrier in the adult male rat” (Journal of Neurochemistry, 2017).

The subject of data set [1] is efflux transporters. Briefly: Brain perfusion in situ with efflux transporter inhibitors co-perfused with 3H-steroid sulphate. The format is in vivo, rat. Particulars: GF120918 3 μM or MK571 50 μM co-perfused, alone or in combination; 0.5 min perfusion. The protocol:
Figure 3 Effect of the efflux inhibitors GF120918 (3 μM) and MK571 (50 μM), alone or in combination, on the brain uptake of either ^3H‐dehydroepiandrosterone sulphate (DHEAS) or ^3H‐pregnenolone sulphate (PregS) after 0.5 min perfusion. […] All values mean ± SEM, n = 3. The effect of 0.5 mM of the corresponding unlabelled steroid sulphate (SS) in addition to the inhibitors is also shown. […] The inhibitors GF120918 and MK571 were dissolved in dimethylsulphoxide to a maximum final concentration of 0.8% (v/v) in the perfusate.

A short description of data set [2]: Bilateral brain perfusion, capillary depletion and separation of free and sulphated 3H-steroids. The format is in vivo, rat. As to the method:
Brains were bilaterally perfused for 0.5 min with ^3H‐labelled DHEAS 1.25 or 6.0 μCi (0.046 or 0.221 MBq)/mL (13.5 or 64.9 nM) or PregS 1.0 μCi (0.037 MBq)/mL (47.6 nM). The hindbrain was removed and each hemisphere homogenised in 2 vols (w/v) buffer containing (in mM) NaCl 141, KCl 4, NaH2PO4 1, CaCl2 2.8, MgCl2 1, HEPES 10, D‐glucose 10, pH 7.4. A sample of the homogenate of the whole right hemisphere was removed for scintillation counting, and the remainder retained as the whole brain homogenate.
The left hemisphere homogenate was separated into capillary‐enriched and capillary‐depleted fractions by the method of Triguero et al. (1990). For this, an equal volume of 26% dextran (w/w) solution was added to the homogenate and a sample taken for liquid scintillation counting before centrifugation at 5300 g for 15 min at 4°C. The upper layer was taken as the capillary‐depleted fraction and the pellet as the capillary‐enriched fraction.
Before extraction, fractions were sonicated in 5 vols ice‐cold, 5 mM potassium phosphate buffer, pH 7. Small portions (150 μL) were removed for measurement of protein content (Bradford 1976) and total radioactivity. For the latter, homogenate was solubilised (15 min, 20°C) in 10 vols Soluene then bleached (2 h, 50°C) with 0.3 vol hydrogen peroxide before counting in Ecoscint H containing Triton X‐100 (6% v/v), glacial acetic acid (0.6% v/v) and butylated hydroxytoluene (2% w/v). The remainder of each homogenate was extracted as described in detail elsewhere (Ebner et al. 2006; Sujkovic et al. 2009), to give free steroid and steroid sulphate fractions. First, homogenates were extracted into 20 vols ethanol containing acetic acid 3% (v/v). After centrifugation (28 000 g, 30 min, 25°C) to remove denatured protein, the extracts were delipidated by partitioning three times against 10 vols isooctane. Extracts were dried down under vacuum and redissolved in ethanol, which was then diluted to 20% v/v in 5 mM potassium phosphate buffer, pH 7.0 at a total volume of 20 ml. Separation of free and sulphated steroids was achieved by passage through a 60 mg Oasis MAX® cartridge. After washing the cartridge with 5 mL ethanol at 20% v/v in ammonium acetate (20 mM, pH 7), free steroids were eluted in 4 mL ethyl acetate. Passage of 20 mL ethanol at 60% v/v in formate/pyridine buffer (20 mM, pH 3) eluted any steroid glucuronides present. Finally, steroid sulphates were eluted in 30 mL 60% v/v ethanol containing ammonium carbonate 1% (w/v). To measure the radioactivity of each fraction, portions were dried down and then redissolved in Ecoscint H for counting. The remainder was dried down, redissolved in ethanol 96% v/v and stored at −20°C for subsequent analysis by TLC.

The nature of data set [3]: TLC analysis of 3H-steroid metabolites in brain fractions after perfusion. The format is in vivo, rat. The settings on record: after 0.5 min perfusion with the 3H-steroid sulphate. The text has this:
For the analysis of ^3H‐steroid metabolites, samples were spotted onto TLC plates for chromatography in the following solvent systems: A (for sulphated steroids), ethyl acetate:ethanol:ammonia (5 : 5 : 1, v/v); B (for free steroids) cyclohexane:n‐butyl acetate (1 : 2, v/v); C (for acetylated steroids), isooctane:ethyl acetate (13 : 7, v/v). Non‐radioactive steroid standards could be visualised by exposure to iodine vapour whereas the ^3H‐steroids were detected by placing the TLC plates in contact with imaging film for subsequent visualisation in a phosphorimager. Additional analysis of the steroid sulphates employed elution from the TLC plate in ammoniated ethanol then drying down and redissolving in sodium acetate buffer, 0.5 M, pH 5.0 for desulphation by incubation with Helix sulphatase (1 mg/mL, 40°C overnight followed by 55°C for 3 h). The resulting free steroids were adsorbed onto a 60 mg Oasis HLB® cartridge and eluted in 5 mL ethyl acetate. This eluate was dried down and analysed by TLC as above for free steroids. Further identification of ^3H‐steroid metabolites was obtained by acetylating them alongside both ^3H‐labelled and non‐radioactive standards. The TLC eluates or standards were dried down and redissolved in 200 μL pyridine. An equal volume of acetic anhydride was then added followed by incubation at 37°C for 2 h. […]

A short description of data set [4]: Rat brain perfusion in situ: uptake of 3H-steroid sulphates and markers (Vd, Kin, PS). Particulars: for K in, unidirectional transfer coefficient / PS, permeability–surface area product: 0.5 min perfusion; for K in, unidirectional transfer coefficient: corrected for vascular space (sucrose Vd), mean ± SEM, n ≥ 3; for PS, permeability–surface area product: from K in by Renkin–Crone equation with diazepam K in as flow. The protocol: Each animal also received intraperitoneal heparin, 10 000 U/kg. Body temperature was maintained at 37°C with a heating pad.
For analysis of free and sulphated steroids and for steryl‐sulfate sulfohydrolase (EC 3.1.6.2; trivial name steroid sulphatase) assays, both hemispheres were perfused, via right and left common carotid arteries, and 0.8 mM MgCl2 replaced 0.8 mM MgSO4 in the solution. The perfusate was delivered at a constant rate of 6 mL/min for hemi‐perfusions and 12 mL/min for bilateral perfusions, maintaining a net perfusion pressure of 40–70 mm Hg.
The remaining tissue of the right hemisphere was homogenised and samples (~50 mg) taken in triplicate (“remainder samples”). Triplicate samples of the perfusate were also taken. Samples were weighed into vials and dissolved (48 h at 20°C) in 0.5 mL Solvable before addition of 4.5 mL Optiphase 2 scintillation fluid for counting of radioactivity.
Brain uptake was calculated as a volume of distribution V d, where V d (μL/g) = (dpm/g tissue)/(dpm/μL perfusate). The unidirectional transfer coefficients, (K in, μL/g/min), for DHEAS and for PregS were calculated from the V d at 0.5 min, corrected with the V d for the vascular space marker sucrose.

The mark [5] stands for this setting: after 0.5 min bilateral perfusion, mean ± SEM, n = 5.

The structures appear in SMILES notation.

For `COc1cc2c(cc1OC)CN(CCc1ccc(NC(=O)c3cccc4c(=O)c5cccc(OC)c5[nH]c34)cc1)CC2.Cl` [GF120918, 9,10‐dihydro‐5‐methoxy‐9‐oxo‐N‐[4‐[2‐(1,2,3,4‐tetrahydro‐6,7‐dimethoxy‐2‐isoquinolinyl)ethyl]phenyl]‐4‐acridine‐carboxamide hydrochloride], in data set [1], the “effect on brain uptake of 3H-DHEAS” value is “significant decrease in uptake” and the “effect on brain uptake of 3H-PregS” value is recorded as “significant decrease in uptake”.
On to `CN(C)C(=O)CCSC(SCCC(=O)O)c1cccc(/C=C/c2ccc3ccc(Cl)cc3n2)c1` (stereo not drawn) [MK571, 3‐[[[3‐[(1E)‐2‐(7‐Chloro‐2‐quinolinyl)ethenyl]phenyl][[3‐(dimethylamino)‐3‐oxopropyl]thio]methyl]thio]propanoic acid], for which, in data set [1], the “effect on brain uptake of 3H-DHEAS” value is given as “significant decrease in uptake” and the “effect on brain uptake of 3H-PregS” value is listed as “significant decrease in uptake”.
Take `CC(=O)[C@H]1CCC2C3CC=C4C[C@@H](OS(=O)(=O)O)CC[C@]4(C)C3CC[C@@]21C` (stereo partly drawn) [PregS, pregnenolone sulphate]: in data set [2] (setting [5]), the “radioactivity in capillary fraction” value came to 1856 ± 245 dpm/mg protein. Moreover, the “radioactivity in parenchyma fraction” value in data set [2] (setting [5]) was determined as 1988 ± 328 dpm/mg protein. Besides, in data set [2] (setting [5]), the “recovery of total homogenate radioactivity into capillary fraction” value is recorded as 8.8 ± 1.8%. The “recovery of total homogenate radioactivity into parenchyma fraction” value in data set [2] (setting [5]) turned out to be 68.0 ± 10.0%. For the same compound, in data set [2] (after 0.5 min perfusion, Fig. 4, p < 0.02), the “percentage of 3H-label as free steroid, parenchyma versus capillary” value is on record as “significantly higher percentage of the free steroid in the parenchyma than in the brain capillaries”. In data set [2] (within 0.5 min of uptake, brain perfusion in situ), the “desulphation on uptake into brain” value is given as over 50%. In addition, in data set [3], the “metabolism in brain fractions” value was “no further metabolism of PregS beyond the liberation of free steroid pregnenolone”. The “K in, unidirectional transfer coefficient” value in data set [4] (Cerebellum) amounted to 256.8 ± 43.7 µL/g/min; in data set [4] (Hippocampus), 292.1 ± 24.2 µL/g/min; in data set [4] (Hypothalamus), 277.6 ± 48.8 µL/g/min; in data set [4] (Medulla) it was 196.4 ± 39.5 µL/g/min; in data set [4] (Parietal cortex), 351.5 ± 9.8 µL/g/min; in data set [4] (Remainder of brain tissue), 311.2 ± 20.8 µL/g/min. Further, the “K in, unidirectional transfer coefficient” value worked out at 328.6 ± 41.9 µL/g/min in data set [4] (Striatum) and 404.9 ± 30.4 µL/g/min in data set [4] (Sup. colliculus). For the same compound, the “PS, permeability–surface area product” value in data set [4] (Cerebellum) stood at 392.6 ± 103.4 µL/g/min; in data set [4] (Hippocampus) it was 303.5 ± 26.0 µL/g/min; in data set [4] (Hypothalamus), 295.8 ± 54.8 µL/g/min; in data set [4] (Medulla) it was 328.6 ± 117.5 µL/g/min; in data set [4] (Parietal cortex), 377.2 ± 11.3 µL/g/min; in data set [4] (Remainder of brain tissue) it was 326.5 ± 22.9 µL/g/min. Further, the “PS, permeability–surface area product” value came out at 351.5 ± 48.1 µL/g/min in data set [4] (Striatum) and 419.6 ± 32.5 µL/g/min in data set [4] (Sup. colliculus). In addition, in data set [4] (PS from K in as slope of Vd against time 0.25 to 0.5 min, implies net efflux), the “position of log PS in plot against cLog Poct relative to the line for passively permeating compounds” value is listed as “below the 95% confidence limits of the line of best fit for passively permeating compounds”. Further, in data set [4] (rat, in vivo), the “V d, corrected for sucrose space (vascular volume), control” value was determined as 165.63 ± 10.40 µL/g. Further, the “time at which brain uptake (Vd) reached a maximum” value in data set [4] (rat, in vivo) is at most 1 min.
